This note sets out measurements from patent US20220356525A1, “METHODS OF DETERMINING WHETHER PATIENTS SUFFERING FROM ACUTE MYELOID LEUKEMIA WILL ACHIEVE A RESPONSE TO AN MYC-TARGETING THERAPY” (INSERM (INSTITUT NATIONAL DE LA SANTÉ ET DE LA RECHERCHE …, priority 2019, published 2022).

Test [1] relates to AML cell lines (KG1a, IMS-M2, and U937). Put plainly: AML cell line sensitivity to BET/CDK7 inhibitors in standard versus nutrient-deprived (folic acid-starved) media. The test is classed as cell-based, human. An excerpt: BET proteins interact with acetylated histones in active regulatory domains (promoters and enhancers) and promote RNA PolII activity. Despite the general nature of this mechanism, BET inhibitors have shown selective effects on gene expression through suppression of […] and MYC-related transcriptional programs (8, 11, 12). Two cohorts of AML patients (TCGA-LAML, n=198 and GSE14468, n=526) were queried with multiple gene sets related to MYC transcriptional programs as well as vitamin, amino acid, and nucleotide metabolism using single sample Gene Set Enrichment Analysis (ssGSEA). Correlation between gene sets was queried across all patients from each cohort to pinpoint potential crosstalk between active MYC programs and specific metabolic pathways (data not shown).
(§1) To investigate further the relationship between folic acid starvation and increased BET inhibitor resistance, we compiled a panel of AML cell lines harboring diverse genetic alterations. […] The effect of folic acid removal was also evaluated in cell lines treated either with a second BET inhibitor, JQ1, or with THZ-1, a covalent inhibitor of CDK7, another key factor in transcriptional elongation at super-enhancer regions and a strong inhibitor of MYC expression (data not shown). […] Therefore, we studied selective suppression of BRD4 by short hairpin RNA (shRNA) in two AML cell lines.

Test [2] relates to U937 cell colonies. Put plainly: Colony formation assay with OTX015 at reduced folic acid. The test is classed as cell-based, human. The note with it: 125-fold decrease in folic acid (1 mg/L to 0.008 mg/L). On the procedure:
as §1

Test [3] deals with AML cells. Put plainly: Apoptosis in response to OTX015 upon folic acid withdrawal. The test is classed as cell-based, human. On the procedure:
as §1

Test [4] concerns MLL-translocated primary patient samples with AML. The experiment in a line: OTX015 sensitivity of primary AML patient samples. The test is classed as cell-based, human. On the procedure: (§2) Error bars represent mean±SD.
as §1
Previous studies have extensively characterized two common MTHFR genetic variants, C677T and A1298C, encoding MTHFR enzyme variants with reduced activity, resulting in hyperhomocysteinemia in human carriers. In particular, the homozygous variant 677 TT and 1298 CC genotypes are present in ˜10% of Caucasians and display only 30% and 60% of the homozygous wild-type 677 CC and 1298 AA enzyme activities, respectively (16, 17). […] Five KG1a clones either 1) wild-type 677 CC and 1298 AA, 2) heterozygous 677 CT or 1298 AC, or 3) homozygous 677 TT or 1298 CC, were selected and genotyped via allelic discrimination technique (FIG. 1A). […] Finally, we engineered a tractable MLL-AF9-driven mouse model of AML in which Mtfhr genotype status was either homozygous wild-type, heterozygous or homozygous knockout.

Test [5] relates to IMS-M2 AML cells. Put plainly: OTX015 sensitivity after shRNA knockdown of folate cycle enzymes. The test is classed as cell-based, human. The note with it: for increase of IC50 of OTX015: average.
The subject of test [6] is AML cell lines: KG1a, OCI-AML2, and U937. The experiment in a line: OTX015 response and colony number after MTHFR-directed shRNAs in AML cell lines. The test is classed as cell-based, human. An excerpt: Dietary folic acid undergoes several conversion steps into intermediate metabolites before generation of 5,10-methylene-THF (5,10-CH2 THF). 5,10-CH2 THF is then either reduced in the folate cycle or oxidized in the formate-producing tetrahydrofolate salvage cycle, depending on cellular needs. Despite the fact that folic acid can ultimately be processed through these two interconnected pathways, we observed in our previous ssGSEA analyses that active MYC gene signatures were highly correlated with activation of tetrahydrofolate salvage cycle, but not with folate cycle-related gene sets (data not shown). […] Five central enzymes control the multi-step conversion of dietary folate into 5,10-methylene-THF (5,10-CH2 THF) before its reduction to 5-methyl-THF (5-CH3 THF) and recycling to THF. […] Finally, we abrogated Mthfr expression in primary murine MLL-AF9-driven AML cells using two Mthfr-directed shRNAs before treatment of engrafted mice with JQ1 (data not shown).

Test [7] has as its system CRISPR/Cas9-edited KG1a clones. The experiment in a line: OTX015 sensitivity and colony formation of CRISPR/Cas9-edited KG1a clones with MTHFR variants. The test is classed as cell-based, human. The conditions noted are these: 677 TT and 1298 CC homozygous versus wild-type clones; 1 μM OTX015.
From the text: Error bars represent mean±SD. Experiment performed at least two independent times.
as §2
Additional information is provided in the supplementary material and methods section.
Finally, we engineered a tractable MLL-AF9-driven mouse model of AML in which Mtfhr genotype status was either homozygous wild-type, heterozygous or homozygous knockout.

In test [8] the test system is U937 cells. The experiment in a line: OTX015 sensitivity after EED, EHMT1, SETDB1 hairpins. The test is classed as cell-based, human. The conditions noted are these: hairpins reducing EED, EHMT1 and SETB1 protein.
The test system of test [9] is MYC transcriptional program. The experiment in a line: RNA sequencing and gene set enrichment after OTX015 for 24 hours. The test is classed as cell-based, human. The note with it: IMS-M2 and U937; irrespective of folate status; FDR<0.25.
The subject of test [10] is IMS-M2 and U937 cells. Put plainly: OTX015 resistance after SPI1 knockdown with folate withdrawal or MTHFR suppression. The test is classed as cell-based, human. The note with it: SPI1 depletion; folate cycle disturbed or MTHFR suppressed. An excerpt: To explore functionally whether SPI1 transcriptional program activation induced by folate cycle disruption promotes resistance to BRD4 inhibition, we knocked down SPI1 in IMS-M2 and U937 cells before folate withdrawal or MTHFR suppression (FIGS. 5F and 5G).

Test [11] relates to MLL-AF9-transformed Mthfr knockout primary murine cells. The experiment in a line: OTX015 resistance after Spi1 knockdown in Mthfr knockout cells. The test is classed as cell-based.
Setting [12] is: folic acid-starved media versus standard media, panel of AML cell lines.

In the case of `Cc1sc2c(c1C)C(c1ccc(Cl)cc1)=N[C@@H](CC(=O)Nc1ccc(O)cc1)c1nnc(C)n1-2` [OTX015], the “resistance to OTX015” value in test [1] (folic acid starvation, KG1a, IMS-M2, U937) is “consistently enhanced resistance”; in [1] (phenylalanine and histidine starvation) it was “increased resistance to OTX015 in a subset of AML cell lines”; in test [11], “abrogated resistance to OTX015”. Also, in [1] (setting [12]), the “area under curve (AUC)” value is on record as “significantly increased”. The “half-maximal inhibitory concentration (IC50)” value in test [1] (setting [12]) is “significantly increased”. For the same molecule, in [2], the “number of colonies in presence of OTX015” value is listed as “significantly increased the number of U937 cell colonies”. In test [3], the “apoptosis in response to OTX015” value is “decrease in apoptosis”. In addition, in test [4] (16 samples, homozygous and compound heterozygous MTHFR genotype versus wild-type and heterozygous), the “response to OTX015 (IC90, 5 days)” value is given as “responded significantly less”. Moreover, the IC50 entry in test [4] (folic acid withdrawal) is recorded as “markedly increased”. In addition, the “increase of IC50 of OTX015” value in [5] (hairpins targeting DHFR and DHFR2) was found to be 3 fold; in [5] (hairpins targeting MTHFR), 7 fold. Also, the “response to OTX015” value in test [5] (hairpins targeting SHMT1 and MTR) is on record as “did not significantly alter response”. Besides, the “response to increasing doses of OTX015” value in test [6] (MTHFR suppression) is on record as “substantially weakened the response”. Moreover, the “colony number upon OTX015 treatment” value in [6] (MTHFR-depleted versus shCT-infected cells) is “significant increase in colony number”. Moreover, in [7], the “number of colonies upon OTX015 treatment” value was “substantially higher”. For the same molecule, in test [8], the OTX015 sensitivity result is recorded as “markedly alleviated OTX015 sensitivity”. The “enrichment of MYC gene sets in genes suppressed by OTX015” value in test [9] is “highly enriched”. For the same molecule, the OTX015 resistance entry in test [10] is “significantly reduced OTX015 resistance”.
